# Biological target: T1, hFXR (Homo sapiens, UniProt Q96RI1)
# T1 construct: expressed in transfected cells; host or cells: CV-1 cells
# T1 sequence (Q96RI1 1-486): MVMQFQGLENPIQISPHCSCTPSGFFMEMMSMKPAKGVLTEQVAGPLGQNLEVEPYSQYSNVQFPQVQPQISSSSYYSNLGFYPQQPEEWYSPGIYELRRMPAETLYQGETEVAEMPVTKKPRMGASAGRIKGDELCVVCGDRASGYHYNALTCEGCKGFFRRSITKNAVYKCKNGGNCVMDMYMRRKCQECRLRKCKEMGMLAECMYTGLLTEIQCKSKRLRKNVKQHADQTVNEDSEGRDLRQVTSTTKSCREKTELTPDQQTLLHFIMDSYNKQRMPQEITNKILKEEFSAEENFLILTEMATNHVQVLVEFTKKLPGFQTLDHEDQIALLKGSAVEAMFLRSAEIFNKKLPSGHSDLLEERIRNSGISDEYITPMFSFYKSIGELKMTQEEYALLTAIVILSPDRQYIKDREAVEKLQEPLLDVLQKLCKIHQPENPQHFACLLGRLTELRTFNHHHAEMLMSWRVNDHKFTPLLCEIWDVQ
# T1 sequence (P19793 1-462 partner): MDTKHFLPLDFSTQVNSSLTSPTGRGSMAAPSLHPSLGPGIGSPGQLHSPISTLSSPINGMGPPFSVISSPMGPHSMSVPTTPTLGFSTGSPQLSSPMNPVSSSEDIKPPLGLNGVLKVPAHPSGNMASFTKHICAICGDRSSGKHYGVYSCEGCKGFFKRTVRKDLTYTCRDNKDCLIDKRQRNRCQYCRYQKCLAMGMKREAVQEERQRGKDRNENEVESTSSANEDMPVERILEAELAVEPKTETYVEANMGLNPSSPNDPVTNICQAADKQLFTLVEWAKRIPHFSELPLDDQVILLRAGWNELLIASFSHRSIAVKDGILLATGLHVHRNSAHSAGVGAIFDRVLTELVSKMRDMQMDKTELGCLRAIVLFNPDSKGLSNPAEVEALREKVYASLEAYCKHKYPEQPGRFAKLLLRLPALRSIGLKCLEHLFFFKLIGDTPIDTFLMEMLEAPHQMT
# Assay: In Vitro FXR Assay (TK): TK-ECRE-luc reporter in transfected CV-1 cells
# Assay type: cell-based
# Conditions: 18 hrs incubation, luminescence
# Outline: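 Transactivation is scored as luminescence in CV-1 cell lysates. The cells, co-transfected with hFXR/hRXR and a TK-ECRE-luc reporter, are exposed to DMSO-diluted compounds for 18 h.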
row,EC50 [nM],Compound
1,≤ 50,"COc1ccc(C23CCC(CN(c4cc(-c5cnn(C(C)C)c5)ccn4)C(=O)[C@H]4CC[C@H](NC(=O)COCCCO)CC4)(CC2)CC3)cc1C [Compound 13.02, trans-4-(2-(3 Hydroxypropoxy)acetamido)-N-(4-(1-isopropyl-1H-pyrazol-4-yl)pyridin-2-yl)-N-((4-(4-methoxy-3-methylphenyl)bicyclo[2.2.2]octan-1-yl)methyl)cyclohexanecarboxamide]"
2,≤ 50,"COc1ccc([C@H]2CC[C@H](CN(c3cccc(-c4cnn(C(C)C)c4)c3)C(=O)[C@H]3CC[C@H](OC(=O)NCC(C)(C)O)CC3)CC2)nc1C [Compound 5.01, trans-4-((3-(1-Isopropyl-1H-pyrazol-4-yl)phenyl)((trans-4-(5-methoxy-6-methylpyridin-2-yl)cyclohexyl)methyl)carbamoyl)cyclohexyl (2-hydroxy-2-methylpropyl) carbamate]"
3,≤ 50,"COc1ccc(C23CCC(CN(c4cc(-c5cnn(C(C)C)c5)ccn4)C(=O)[C@H]4CC[C@H](OC(=O)N5CC(C)C5)CC4)(CC2)CC3)cc1C [Compound 4.53, 4-((4-(1-Isopropyl-1H-pyrazol-4-yl)pyridin-2-yl) ((4-(4-methoxy-3-methylphenyl)bicyclo [2.2.2]octan-1-yl)methyl)carbamoyl)cyclohexyl trans-3-methylazetidine-1-carboxylate]"
4,≤ 50,"COc1ccc([C@H]2CC[C@H](CN(c3cc(-c4cnn(C(C)C)c4)ccn3)C(=O)[C@H]3CC[C@H](CO)CC3)CC2)cc1C [Compound 17, (trans)-4-(Hydroxymethyl)-N-(4-(1-isopropyl-1H-pyrazol-4-yl)pyridin-2-yl)-N-(((trans)-4-(4-methoxy-3-methylphenyl)cyclohexyl)methyl)cy-clohexanecarboxamide]"
5,≤ 50,"COc1ccc(C23CCC(CN(c4cc(-c5cnn(C(C)C)c5)ccn4)C(=O)[C@H]4CC[C@H](OC(=O)N5CC(C(C)(C)O)C5)CC4)(CC2)CC3)cc1C [Compound 4.42, 4-((4-(1-Isopropyl-1H-pyrazol-4-yl)pyridin-2-yl) ((4-(4-methoxy-3-methylphenyl)bicyclo [2.2.2]octan-1-yl)methyl)carbamoyl)cyclohexyl trans-3-(2-hydroxypropan-2-yl)azetidine-1-carboxylate]"
6,≤ 50,"COc1ccc([C@H]2CC[C@H](CN(c3cc(-c4cnn(CCF)c4)ccn3)C(=O)[C@H]3CC[C@H](OC(=O)N4CC(O)C4)CC3)CC2)cc1C [Compound 2.23, trans-4-((4-(1-(2-Fluoroethyl)-1H-pyrazol-4-yl)pyridin-2-yl) ((trans-4-(4-methoxy-3-methylphenyl)cyclohexyl)methyl)carbamoyl) cyclohexyl 3-hydroxyazetidine-1-carboxylate]"
7,≤ 50,"COc1ccc(C23CCC(CN(c4cc(-c5coc(C(C)C)n5)ccn4)C(=O)[C@H]4CC[C@H](OC(=O)N5CC(S(C)(=O)=O)C5)CC4)(CC2)CC3)cc1C [Compound 23.03, 4-((4-(2-Isopropyloxazol-4-yl)pyridin-2-yl)((4-(4-methoxy-3-methylphenyl)bicyclo[2.2.2]octan-1-yl)methyl)carbamoyl)(trans-cyclohexyl) 3-(methylsulfonyl)azetidine-1-carboxylate]"
8,≤ 50,"CCC(=O)N[C@H]1CC[C@H](C(=O)N(C[C@H]2CC[C@H](c3ccc(OC)c(C)c3)CC2)c2cccc(-c3cnn(C(C)C)c3)c2)CC1 [Compound 10, trans-N-(3-(1-Isopropyl-1H-pyrazol-4-yl)phenyl)-N-((trans-4-(4-methoxy-3-methylphenyl)cyclohexyl)methyl)-4-propionamidocyclohexanecarboxamide]"
9,≤ 50,"COc1ccc([C@H]2CC[C@H](CN(c3cccc(-c4cnn(C(C)C)c4)c3)C(=O)[C@H]3CC[C@H](NC(=O)C(C)C)CC3)CC2)cc1C [Compound 10.06, trans-4-Isobutyramido-N-(3-(1-isopropyl-1H-pyrazol-4-yl)phenyl)-N-((trans-4-(4-methoxy-3-methylphenyl)cyclohexyl)methyl) cyclohexanecarboxamide]"
10,≤ 50,"COc1ccc([C@H]2CC[C@H](CN(c3cccc(-c4cnn(C(C)C)c4)c3)C(=O)[C@H]3CC[C@H](NC(=O)COCCCO)CC3)CC2)cc1C [Compound 13, trans-4-(2-(3-Hydroxypropoxy)acetamido)-N-(3-(1-isopropyl-1H-pyrazol-4-yl)phenyl)-N-((trans-4-(4-methoxy-3-methylphenyl)cyclohexyl)methyl)cyclohexanecarboxamide]"
11,≤ 50,"COc1ccc(C23CCC(CN(c4cc(-c5cnn(C(C)C)c5)c(F)cn4)C(=O)[C@H]4CC[C@H](OC(=O)N5CC(C#N)C5)CC4)(CC2)CC3)cc1C [Compound 25.12, 4-((5-Fluoro-4-(1-isopropyl-1H-pyrazol-4-yl)pyridin-2-yl)((4-(4-methoxy-3-methylphenyl)bicyclo[2.2.2]octan-1-yl)methyl)carbamoyl)cyclohexyl trans-3-cyanoazetidine-1-carboxylate]"
12,≤ 50,"COc1ccc(C23CCC(CN(c4cncc(-c5cnn(C6(C)CCC6)c5)c4)C(=O)[C@H]4CC[C@H](OC(=O)N5CC(O)C5)CC4)(CC2)CC3)cc1C [Compound 25.22, 4-(((4-(4-Methoxy-3-methylphenyl)bicyclo[2.2.2]octan-1-yl)methyl)(5-(1-(1-methylcyclobutyl)-1H-pyrazol-4-yl)pyridin-3-yl)carbamoyl)cyclohexyl trans-3-hydroxyazetidine-1-carboxylate]"
13,50 to 1000,"COc1ccc([C@H]2CC[C@H](CN(c3cccc(-c4cnn(C(C)C)c4)c3)C(=O)[C@H]3CC[C@H](NC(=O)C4CCCCC4)CC3)CC2)cc1C [Compound 10.01, trans-4-(Cyclohexanecarboxamido)-N-(3-(1-isopropyl-1H-pyrazol-4-yl)phenyl)-N-((trans-4-(4-methoxy-3-methylphenyl)cyclohexyl)methyl) cyclohexanecarboxamide]"
14,≤ 50,"COc1ncc([C@H]2CC[C@H](CN(c3cc(-c4coc(C5CC5)n4)ccn3)C(=O)[C@H]3CC[C@H](OC(=O)N4CC(N(C)C)C4)CC3)CC2)cc1Cl [Compound 1.06, trans-4-((((trans)-4-(5-Chloro-6-methoxypyridin-3-yl)cyclohexyl)methyl)(4-(2-cyclopropyloxazol-4-yl)pyridin-2-yl)carbamoyl)cyclohexyl 3-(dimethylamino)azetidine-1-carboxylate]"
15,≤ 50,"COCCOC(=O)N[C@H]1CC[C@H](C(=O)N(CC23CCC(c4ccc(OC)c(C)c4)(CC2)CC3)c2cc(-c3cnn(C(C)C)c3)ccn2)CC1 [Compound 7.01, (trans)-2-Methoxyethyl (4-((4-(1-isopropyl-1H-pyrazol-4-yl)pyridin-2-yl)((4-(4-methoxy-3-methylphenyl)bicyclo[2.2.2]octan-1-yl)methyl)carbamoyl)cyclohexyl) carbamate]"
16,≤ 50,"COc1ccc(C23CCC(CN(C(=O)N4CCC(OC(=O)N5CC(O)C5)CC4)c4cc(-c5cnn(C(C)C)c5)ccn4)(CC2)CC3)cc1C [Compound 27, 1-((4-(1-Isopropyl-1H-pyrazol-4-yl)pyridin-2-yl)((4-(4-methoxy-3-methylphenyl)bicyclo[2.2.2]octan-1-yl)methyl)carbamoyl)piperidin-4-yl 3-hydroxyazetidine-1-carboxylate]"

# Source: patent US20220056019A1, “FARNESOID X RECEPTOR AGONISTS AND USES THEREOF” (Metacrine, Inc., priority 2018, published 2022)
